ChEMBL document CHEMBL1148552, “Pulvinones as bacterial cell wall biosynthesis inhibitors” (Bioorg Med Chem Lett, 2006)
In brackets after ≈: the same amount, converted by molar mass.

Tests used:
Staphylococcus aureus [1] = test: Antibacterial activity against methicillin resistant Staphylococcus aureus; assay type: functional; settings: GC 1131
Staphylococcus aureus [2] = test: Antibacterial activity against Staphylococcus aureus; assay type: functional; settings: GC 4543
Enterococcus faecalis [3] = test: Antibacterial activity against Enterococcus faecalis; assay type: functional; settings: GC 4555
Enterococcus faecalis [4] = test: Antibacterial activity against vancomycin resistant Enterococcus faecalis; assay type: functional; settings: GC 2242
Streptococcus pneumoniae = test: Antibacterial activity against penicillin resistant Streptococcus pneumoniae; assay type: functional; settings: GC 1894
[5] = target: UDP-N-acetylglucosamine 1-carboxyvinyltransferase (Escherichia coli K-12, UniProt P0A749); test: Inhibitory activity against MurA in Escherichia coli
Sequence of UDP-N-acetylglucosamine 1-carboxyvinyltransferase (P0A749 whole entry): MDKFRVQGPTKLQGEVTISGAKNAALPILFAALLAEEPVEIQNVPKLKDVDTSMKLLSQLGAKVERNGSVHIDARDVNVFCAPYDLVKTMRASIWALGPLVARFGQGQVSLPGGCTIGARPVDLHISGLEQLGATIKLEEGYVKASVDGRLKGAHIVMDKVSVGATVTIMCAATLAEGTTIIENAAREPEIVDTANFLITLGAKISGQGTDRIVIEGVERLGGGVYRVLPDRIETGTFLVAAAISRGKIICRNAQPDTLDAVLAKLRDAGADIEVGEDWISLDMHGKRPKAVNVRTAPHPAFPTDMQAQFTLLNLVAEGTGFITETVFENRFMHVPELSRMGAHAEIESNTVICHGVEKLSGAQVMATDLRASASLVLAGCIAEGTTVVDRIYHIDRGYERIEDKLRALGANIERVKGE

[6] = target: T1, UDP-N-acetylmuramate--L-alanine ligase (Staphylococcus aureus, UniProt O31211); test: Inhibitory activity against MurC in Staphylococcus aureus
T1 sequence (O31211 whole entry): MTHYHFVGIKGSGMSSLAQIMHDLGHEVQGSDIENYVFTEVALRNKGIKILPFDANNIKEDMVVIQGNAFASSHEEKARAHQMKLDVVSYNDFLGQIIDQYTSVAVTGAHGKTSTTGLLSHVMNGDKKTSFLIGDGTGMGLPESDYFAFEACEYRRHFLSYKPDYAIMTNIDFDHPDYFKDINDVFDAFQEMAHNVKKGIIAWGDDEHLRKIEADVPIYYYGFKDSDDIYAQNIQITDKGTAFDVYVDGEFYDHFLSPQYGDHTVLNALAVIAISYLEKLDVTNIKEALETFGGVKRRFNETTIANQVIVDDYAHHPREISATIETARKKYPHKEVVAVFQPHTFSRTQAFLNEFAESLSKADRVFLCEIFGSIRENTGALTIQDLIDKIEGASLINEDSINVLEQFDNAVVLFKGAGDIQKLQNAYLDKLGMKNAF

[7] = target: T2, UDP-N-acetylmuramoylalanine--D-glutamate ligase (Staphylococcus aureus, UniProt P0A091); test: Inhibitory activity against MurD in Staphylococcus aureus
T2 sequence (P0A091 whole entry): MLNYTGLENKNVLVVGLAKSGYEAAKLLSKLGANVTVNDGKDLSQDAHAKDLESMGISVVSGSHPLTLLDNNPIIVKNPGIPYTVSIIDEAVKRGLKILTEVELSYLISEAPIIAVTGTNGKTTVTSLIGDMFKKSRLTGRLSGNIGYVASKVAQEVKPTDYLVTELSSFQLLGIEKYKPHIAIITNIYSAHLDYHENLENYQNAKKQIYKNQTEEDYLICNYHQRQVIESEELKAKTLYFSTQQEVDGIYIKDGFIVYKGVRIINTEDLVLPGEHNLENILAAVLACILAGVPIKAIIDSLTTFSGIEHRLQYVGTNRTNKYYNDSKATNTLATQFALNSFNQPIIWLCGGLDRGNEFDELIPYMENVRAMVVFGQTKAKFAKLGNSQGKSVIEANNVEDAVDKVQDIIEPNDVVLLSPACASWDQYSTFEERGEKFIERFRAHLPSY

[8] = target: T3, UDP-N-acetylenolpyruvoylglucosamine reductase (Escherichia coli K-12, UniProt P08373); test: Inhibitory activity against MurB in Escherichia coli
T3 sequence (P08373 whole entry): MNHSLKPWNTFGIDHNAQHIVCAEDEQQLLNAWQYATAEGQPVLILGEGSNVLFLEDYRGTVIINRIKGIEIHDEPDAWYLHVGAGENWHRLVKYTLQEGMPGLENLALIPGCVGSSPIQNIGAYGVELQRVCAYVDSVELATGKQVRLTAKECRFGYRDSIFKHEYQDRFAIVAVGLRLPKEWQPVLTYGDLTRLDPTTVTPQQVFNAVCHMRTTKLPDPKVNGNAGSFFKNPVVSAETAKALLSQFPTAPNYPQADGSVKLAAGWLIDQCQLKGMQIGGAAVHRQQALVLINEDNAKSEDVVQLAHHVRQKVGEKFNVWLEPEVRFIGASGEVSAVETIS

[9] = target: T4, UDP-N-acetylglucosamine 1-carboxyvinyltransferase 1 (Staphylococcus aureus subsp. aureus N315, UniProt P84058); test: Inhibitory activity against MurA in Staphylococcus aureus
T4 sequence (P84058 whole entry): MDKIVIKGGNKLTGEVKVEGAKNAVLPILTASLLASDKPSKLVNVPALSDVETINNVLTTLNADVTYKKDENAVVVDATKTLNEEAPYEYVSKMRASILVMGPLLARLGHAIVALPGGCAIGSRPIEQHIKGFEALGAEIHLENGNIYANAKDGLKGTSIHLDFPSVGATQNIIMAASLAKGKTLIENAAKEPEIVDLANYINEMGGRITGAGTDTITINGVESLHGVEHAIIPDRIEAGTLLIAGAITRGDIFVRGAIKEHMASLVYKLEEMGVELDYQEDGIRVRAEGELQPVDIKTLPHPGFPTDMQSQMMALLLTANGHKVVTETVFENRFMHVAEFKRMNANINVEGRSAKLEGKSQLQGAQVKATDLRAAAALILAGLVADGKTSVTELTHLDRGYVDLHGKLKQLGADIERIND

[10] = target: UDP-N-acetylmuramate--L-alanine ligase (Escherichia coli K-12, UniProt P17952); test: Inhibitory activity against MurC in Escherichia coli
Sequence of UDP-N-acetylmuramate--L-alanine ligase (Escherichia coli K-12, UniProt P17952) (P17952 whole entry): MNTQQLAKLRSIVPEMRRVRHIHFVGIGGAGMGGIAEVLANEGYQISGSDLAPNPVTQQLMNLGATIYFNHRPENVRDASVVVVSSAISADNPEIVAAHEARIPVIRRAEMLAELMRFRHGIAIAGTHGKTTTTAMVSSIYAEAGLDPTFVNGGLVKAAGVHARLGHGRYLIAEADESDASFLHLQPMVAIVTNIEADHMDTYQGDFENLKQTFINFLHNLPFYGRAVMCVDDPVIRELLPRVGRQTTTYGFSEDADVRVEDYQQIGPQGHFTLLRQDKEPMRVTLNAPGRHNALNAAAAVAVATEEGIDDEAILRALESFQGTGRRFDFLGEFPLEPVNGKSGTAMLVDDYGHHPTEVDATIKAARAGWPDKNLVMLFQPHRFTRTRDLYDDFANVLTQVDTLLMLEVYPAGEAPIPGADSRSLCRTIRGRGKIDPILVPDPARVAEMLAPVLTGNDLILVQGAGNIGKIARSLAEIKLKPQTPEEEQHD

[11] = target: T5, UDP-N-acetylmuramoylalanine--D-glutamate ligase (Escherichia coli K-12, UniProt P14900); test: Inhibitory activity against MurD in Escherichia coli
T5 sequence (P14900 whole entry): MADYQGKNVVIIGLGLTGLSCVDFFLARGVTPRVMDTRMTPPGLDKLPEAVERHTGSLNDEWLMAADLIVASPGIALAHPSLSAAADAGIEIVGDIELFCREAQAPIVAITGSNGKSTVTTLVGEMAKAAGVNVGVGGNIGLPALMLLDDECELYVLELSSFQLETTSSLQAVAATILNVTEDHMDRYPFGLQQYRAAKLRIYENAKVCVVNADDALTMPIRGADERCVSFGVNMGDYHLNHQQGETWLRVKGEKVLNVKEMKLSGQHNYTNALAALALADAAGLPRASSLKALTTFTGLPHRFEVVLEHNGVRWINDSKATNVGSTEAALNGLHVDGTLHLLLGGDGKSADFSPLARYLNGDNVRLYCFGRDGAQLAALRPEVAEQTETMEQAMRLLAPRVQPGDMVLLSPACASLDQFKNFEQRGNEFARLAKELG

SMILES | MIC (Staphylococcus aureus [1]) | MIC (Staphylococcus aureus [2]) | MIC (Enterococcus faecalis [3]) | MIC (Enterococcus faecalis [4]) | MIC (Streptococcus pneumoniae) | IC50 [5] | IC50 [6] | IC50 [7] | IC50 [8] | IC50 [9] | IC50 [10] | IC50 [11]
O=C1O/C(=C\c2ccccc2-c2ccc(Cl)c(Cl)c2)C(O)=C1c1ccc(Cl)c(Cl)c1 | 0.5 µg/mL (≈ 1.05 µM) | 0.25 µg/mL (≈ 0.523 µM) | 1 µg/mL (≈ 2.09 µM) | 0.5 µg/mL (≈ 1.05 µM) | ≤ 0.12 µg/mL | 6.27 µM | 37.6 µM | 10.5 µM |  |  |  | 
Cc1cc(/C=C2\OC(O)=C(c3cc(Cl)cc(Cl)c3)C2=O)ccc1-c1ccccc1C(F)(F)F | 0.5 µg/mL (≈ 1.02 µM) | 0.5 µg/mL (≈ 1.02 µM) | 2 µg/mL (≈ 4.07 µM) | 1 µg/mL (≈ 2.04 µM) | 0.5 µg/mL (≈ 1.02 µM) |  | > 50.9 µM | 48.9 µM | 6.11 µM | 4.07 µM |  | 
Cc1ccccc1-c1ccc(/C=C2\OC(O)=C(c3cc(Cl)cc(Cl)c3)C2=O)cc1C | 0.5 µg/mL (≈ 1.14 µM) | 0.5 µg/mL (≈ 1.14 µM) | 2 µg/mL (≈ 4.57 µM) | 0.5 µg/mL (≈ 1.14 µM) | ≤ 0.12 µg/mL | 4.57 µM | 52.6 µM | 20.6 µM | 2.29 µM |  |  | 
O=C1O/C(=C\c2cccc(C(F)(F)F)c2)C(O)=C1c1ccc(Cl)cc1 | 16 µg/mL (≈ 43.6 µM) | 8 µg/mL (≈ 21.8 µM) | 16 µg/mL (≈ 43.6 µM) | 8 µg/mL (≈ 21.8 µM) | 1 µg/mL (≈ 2.73 µM) | 38.2 µM |  |  | 24.5 µM |  | 16.4 µM | > 68.2 µM
COc1ccc(C2=C(O)O/C(=C\c3cccc4ccccc34)C2=O)cc1 | 32 µg/mL (≈ 92.9 µM) | 64 µg/mL (≈ 186 µM) | > 128 µg/mL | 32 µg/mL (≈ 92.9 µM) | 8 µg/mL (≈ 23.2 µM) | > 72.6 µM |  |  | > 72.6 µM |  | 46.5 µM | > 72.6 µM
COc1ccccc1-c1ccc(/C=C2\OC(O)=C(c3cc(Cl)cc(Cl)c3)C2=O)cc1OC | 2 µg/mL (≈ 4.26 µM) | 2 µg/mL (≈ 4.26 µM) | 8 µg/mL (≈ 17 µM) | 8 µg/mL (≈ 17 µM) | 0.5 µg/mL (≈ 1.07 µM) | 36.2 µM |  |  | 12.8 µM |  | 12.8 µM | > 53.3 µM
COc1ccc(C2=C(O)O/C(=C\c3cccc(C(F)(F)F)c3)C2=O)cc1 | 1 µg/mL (≈ 2.76 µM) | 128 µg/mL (≈ 353 µM) | 128 µg/mL (≈ 353 µM) | 64 µg/mL (≈ 177 µM) | 2 µg/mL (≈ 5.52 µM) | > 69 µM |  |  | > 69 µM |  | 38.6 µM | 69 µM
Cc1cc(/C=C2\OC(O)=C(c3cccc(Cl)c3)C2=O)ccc1-c1ccccc1C(F)(F)F | 2 µg/mL (≈ 4.38 µM) | 1 µg/mL (≈ 2.19 µM) | 4 µg/mL (≈ 8.76 µM) | 2 µg/mL (≈ 4.38 µM) | ≤ 0.12 µg/mL | 8.76 µM | 32.8 µM | 26.3 µM | 6.57 µM |  |  | 
O=C1O/C(=C\c2cccc(C(F)(F)F)c2)C(O)=C1c1ccc(-c2ccccc2)c(F)c1 | 2 µg/mL (≈ 4.69 µM) | 2 µg/mL (≈ 4.69 µM) | 1 µg/mL (≈ 2.35 µM) | 0.25 µg/mL (≈ 0.586 µM) | 0.25 µg/mL (≈ 0.586 µM) | 23.5 µM |  |  |  |  | 18.8 µM | > 58.6 µM
O=C1O/C(=C\c2cc(C(F)(F)F)ccc2Cl)C(O)=C1c1ccc(N2CCOCC2)c(F)c1 | 64 µg/mL (≈ 136 µM) | 128 µg/mL (≈ 272 µM) | 128 µg/mL (≈ 272 µM) | 128 µg/mL (≈ 272 µM) | 16 µg/mL (≈ 34.1 µM) | > 53.2 µM | > 53.2 µM | > 53.2 µM | 21.3 µM |  |  | 
O=C1O/C(=C\c2cccc(-c3cc(Cl)cc(Cl)c3)c2)C(O)=C1c1cc(Cl)cc(Cl)c1 | 0.25 µg/mL (≈ 0.523 µM) | 0.25 µg/mL (≈ 0.523 µM) | 1 µg/mL (≈ 2.09 µM) | 0.5 µg/mL (≈ 1.05 µM) | 0.25 µg/mL (≈ 0.523 µM) | 4.18 µM |  | 12.5 µM |  |  |  | 
COc1cc(/C=C2\OC(O)=C(c3cc(Cl)cc(Cl)c3)C2=O)ccc1-c1ccccc1C(F)(F)F | 0.5 µg/mL (≈ 0.986 µM) | 0.5 µg/mL (≈ 0.986 µM) | 2 µg/mL (≈ 3.94 µM) | 1 µg/mL (≈ 1.97 µM) | 0.5 µg/mL (≈ 0.986 µM) | 7.89 µM | 39.4 µM | 33.5 µM | 3.94 µM |  |  | 
